Consider one molecule from publication doi:10.1101/2022.07.06.498982v1 (biorxiv, 2022).

Experiment [1] has as its target soluble recombinant human TLR4 (hTLR4) (Homo sapiens, UniProt O00206). Nature of the experiment: biochemical.
Experiment [2] deals with soluble recombinant mouse TLR4 (mTLR4) (Mus musculus, UniProt Q9QUK6). As to the kind of experiment: biochemical.
Chain of soluble recombinant mouse TLR4 (mTLR4) (Q9QUK6 26-638 limits assumed): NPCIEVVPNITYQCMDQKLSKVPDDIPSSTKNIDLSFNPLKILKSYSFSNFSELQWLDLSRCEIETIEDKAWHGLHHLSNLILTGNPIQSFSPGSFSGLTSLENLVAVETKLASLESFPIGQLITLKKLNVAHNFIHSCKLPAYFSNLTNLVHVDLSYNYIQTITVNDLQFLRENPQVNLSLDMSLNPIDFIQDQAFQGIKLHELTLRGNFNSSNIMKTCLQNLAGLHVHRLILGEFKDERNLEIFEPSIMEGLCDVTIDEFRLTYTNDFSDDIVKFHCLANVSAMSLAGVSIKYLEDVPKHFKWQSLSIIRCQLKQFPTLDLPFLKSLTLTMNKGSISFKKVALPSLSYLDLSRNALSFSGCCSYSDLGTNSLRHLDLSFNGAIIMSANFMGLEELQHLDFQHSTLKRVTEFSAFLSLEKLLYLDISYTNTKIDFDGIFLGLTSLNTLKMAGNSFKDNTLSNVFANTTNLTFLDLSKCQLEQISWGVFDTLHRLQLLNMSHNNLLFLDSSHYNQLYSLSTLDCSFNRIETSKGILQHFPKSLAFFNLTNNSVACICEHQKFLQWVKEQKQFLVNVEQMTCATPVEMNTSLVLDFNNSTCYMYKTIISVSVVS

Chain of soluble recombinant human TLR4 (hTLR4) (O00206 24-631 limits assumed): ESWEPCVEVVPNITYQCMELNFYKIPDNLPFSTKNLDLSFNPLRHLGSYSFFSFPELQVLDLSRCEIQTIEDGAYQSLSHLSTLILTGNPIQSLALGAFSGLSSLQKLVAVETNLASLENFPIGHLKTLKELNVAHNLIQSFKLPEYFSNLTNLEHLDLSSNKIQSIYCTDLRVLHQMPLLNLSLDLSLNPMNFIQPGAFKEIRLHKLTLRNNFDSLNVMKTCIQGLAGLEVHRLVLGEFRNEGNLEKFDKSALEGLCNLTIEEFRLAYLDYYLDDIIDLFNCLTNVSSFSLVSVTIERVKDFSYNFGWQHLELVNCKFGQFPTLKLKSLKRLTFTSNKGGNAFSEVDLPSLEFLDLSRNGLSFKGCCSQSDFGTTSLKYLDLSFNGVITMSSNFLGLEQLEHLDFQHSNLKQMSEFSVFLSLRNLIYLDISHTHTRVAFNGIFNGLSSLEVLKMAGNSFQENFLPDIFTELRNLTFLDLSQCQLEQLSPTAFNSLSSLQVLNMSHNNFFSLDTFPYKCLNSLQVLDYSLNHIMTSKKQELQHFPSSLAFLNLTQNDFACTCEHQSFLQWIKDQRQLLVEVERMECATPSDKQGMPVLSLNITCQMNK

Broadly, the Kd is the constant that tells how readily two partners part at equilibrium. Regarding `[NH2][Pt]([NH2])([Cl])[Cl]` [cisplatin], the Kd in experiment [1] was found to be 100 µM; in experiment [2], 134 µM.
